# In patent US20150157584A1, “INHIBITORS OF HIPPO-YAP SIGNALING PATHWAY” (The Regents of the University of California, priority 2012, published 2015):
# Read-outs that look alike come from different tables or passages of the source.
# Experiments:
# YAP [1] = format: cell-based, human
# YAP mRNA = YAP mRNA level by RT-PCR; format: cell-based, human; conditions: BOCs 293 cells; 3 μM; 12 and 24 hr
# YAP [2] = assay: YAP ubiquitination (YAP immunoprecipitation, ubiquitin Western blot); format: cell-based, human; conditions: SF268 glioblastoma cells
# M14 cells = assay: wound healing assay; format: cell-based, human; conditions: M14 melanoma; 24 hr scratch assay
# Description: Control and […] treated cells were plated on fibronectin ([…]) coated 6 well plates in complete growth media. After overnight culture, wounds were made by manual scraping of the cell monolayer with a pipet tip. The dishes were washed, replenished with media in the presence or absence of […], and photographed under phase contrast microscope. They were then placed in the tissue culture incubator, and the matched wound regions were photographed every 6 hrs. Migration rate is quantified by traveling distance of leading cellular edge normalized to initial gap distance.
# M14 = assay: transwell cell migration assay, M14; format: cell-based, human; conditions: 1, 2 and 3 μM C108
# Description: Cell migration assay was performed using BD Falcon™ Cell culture inserts for 24-well plates with 22.0 μm pores filter, and the filter was pre-coated with […] Fibronectin. […] After 24 h, cells were fixed using 4% paraformaldehyde and stained using 0.05% crystal violet. Cells in upper chamber were carefully removed, and cells migrated through the filter were assessed by photography. For quantification, crystal violet was extracted and the absorbance at 560 nm was measured.
# SK-Mel-28 melanoma = assay: cell migration assay, SK-Mel-28; format: cell-based, human
# Description: (§1) Cell migration assay was performed using BD Falcon™ Cell culture inserts for 24-well plates with 22.0 μm pores filter, and the filter was pre-coated with […] Fibronectin. Cancer cells were serum-starved for 24 h and then seeded into the upper chamber of the insert in serum-free media, and lower chamber was filled with media containing 20% FBS with or without 2 μM C108. After 24 h, cells were fixed using 4% paraformaldehyde and stained using 0.05% crystal violet. Cells in upper chamber were carefully removed, and cells migrated through the filter were assessed by photography. For quantification, crystal violet was extracted and the absorbance at 560 nm was measured.
# EKVX adenocarcinoma = assay: cell migration assay, EKVX; format: cell-based, human
# Description: as §1
# M14 Melanoma = assay: M14 melanoma cell proliferation (growth curve); format: cell-based, human
# [3] = test system: EKVX adenocarcinoma xenograft; assay: EKVX adenocarcinoma xenograft in nude mice; format: in vivo, mouse; conditions: 100 mg/kg daily via tail-vein injection, three weeks
# Description: (§2) Cells grown to 90% confluence were harvested by trypsinization, washed in phosphate-buffered saline (PBS), and resuspended in PBS supplemented with 50% matrigel (BD Biosciences). Cells in 200 μL per injection site were administered. Nude mice (Nu-foxn1nu, Charles Rivers Laboratories) were injected on both flanks of the dorsolateral sites subcutaneously. C108 was formulated in 10% DMSO and 40% propylene glycol then administered at a dose of 100 mg/kg daily via tail-vein injection. Control mice received vehicle alone. The average tumor diameter (two perpendicular axes of the tumor were measured) was recorded. The data are expressed in tumor volume estimated by ([width]^2×length/2). Paired, two-tailed Student's t-test was performed to access the statistical significance.
# In order to investigate the physiological impact of C108 on implanted tumor cell growth, in vivo xenograft models using M14 melanoma and EKVX adenocarcinoma in immune compromised mice were examined. Cancer cells mixed with 50% matrigel were injected subcutaneously, palpable tumors with approximately 5 mm in diameter across all injection sites were observed within 3 weeks. […] During the treatment period, tumor growth was monitored and final tumor weights were measured.
# M14 melanoma xenograft = M14 melanoma xenograft in nude mice
# Description: as §2
# In order to investigate the physiological impact of C108 on implanted tumor cell growth, in vivo xenograft models using M14 melanoma and EKVX adenocarcinoma in immune compromised mice were examined. Cancer cells mixed with 50% matrigel were injected subcutaneously, palpable tumors with approximately 5 mm in diameter across all injection sites were observed within 3 weeks. At that point, control group (6 mice) was tail-vein injected with the solvent consist of 10% DMSO and 40% propylene glycol while the treatment group (6 mice) received daily injection of C108 for three additional weeks. During the treatment period, tumor growth was monitored and final tumor weights were measured.
smiles,measurement,setting,value
"O=S(=O)(c1ccc2c(c1)C(=NO)c1cc(S(=O)(=O)N3CCCCC3)ccc1-2)N1CCCCC1 [C108, 2,7-bis(piperidin-1-yl-sulfonyl)-9H-fluoren-9-one oxime]",YAP protein in the presence of cycloheximide,"YAP [1]; 10 μM C108, 12 hrs",rapidly diminished
same,YAP protein levels,"YAP [1]; BOCS cells, 16 hours of treatment",dramatic decrease
same,concentration at which endogenous YAP protein was significantly reduced,"YAP [1]; BOCs 293 cells, 12 and 24 hr of drug exposure",2 to 3 µM
same,YAP protein levels,"YAP [1]; SF268 glioma, M14 melanoma and SK-Mel-28 melanoma",decreased
same,YAP mRNA levels,YAP mRNA,no noticeable changes
same,endogenous YAP ubiquitination,YAP [2],dramatically increased
same,cell migration in wound-healing assay,M14 cells,strongly inhibited
same,migration of M14,M14,suppressed
same,migration of SK-Mel-28 melanoma,SK-Mel-28 melanoma,suppressed
same,migration of EKVX adenocarcinoma,EKVX adenocarcinoma,suppressed
same,M14 Melanoma cell proliferation,M14 Melanoma,inhibitory effect
same,growth of EKVX xenograft tumors,[3],significantly inhibited
same,total body weight,"M14 melanoma xenograft; 100 mg/kg daily via tail-vein injection, three weeks",not affected
same,growth of M14 xenograft tumors,"M14 melanoma xenograft; 100 mg/kg daily via tail-vein injection, three weeks, nude mice",significantly inhibited
same,apoptotic marker cleaved PARP in tumors (Western blot),M14 melanoma xenograft; M14 tumors from treated mice,dramatic increase
same,level of YAP in tumor tissues (Western blot),M14 melanoma xenograft; M14 tumors from treated mice,lower level
same,Hematoxylin and Eosin stain of tumor sections,M14 melanoma xenograft; melanoma xenografts,sparser and have lower nuclear to cytoplasimc ratio
